Among the test systems are MDA-MB-435; UO-31 renal; CCRF-CEM leukemia; MOLT-4 leukemia; NCI-H460 lung; RXF 393 renal; HL-60(TB) leukemia.
What all share (assay): DTP human tumour cell line panel, 48 h

Each structure is given as a SMILES string.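 Dose response: 5 concentrations. Exposure: 48 h. Format: 96-well plates. Endpoint: linear interpolation; highest concentration if not reached. Abbreviation: GI50, concentration required for 50% inhibition of growth. TGI is the concentration that stops growth completely.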 A value given as a limit tells only on which side of the number the result lay.

On to `COc1cc(/C(=C2/O[C@@H]([C@H]3COC(C)(C)O3)[C@H]3OC(C)(C)O[C@@H]23)c2ccc3c(c2)OCO3)cc(OC)c1OC`, for which the GI50 (as a rule, the concentration at which growth is held to half of that of the control) in the test on MDA-MB-435 was over 25 µM; with UO-31 renal, over 25 µM; in the test with CCRF-CEM leukemia, over 25 µM; in the test with MOLT-4 leukemia it was over 25 µM; in the test on NCI-H460 lung, over 25 µM; in the test on RXF 393 renal it was 6.05 µM. For the same molecule, in the test with HL-60(TB) leukemia, the GI50 is over 25 µM. The concentration for total growth inhibition (TGI) with MDA-MB-435, with UO-31 renal, in the test on CCRF-CEM leukemia, in the test on MOLT-4 leukemia, with NCI-H460 lung and in the test on RXF 393 renal was over 25 µM throughout. Also, the TGI (commonly the concentration giving total growth inhibition) in the test with HL-60(TB) leukemia is over 25 µM.
`CCOC(=O)C(NC(=O)CC)(Nc1ccc(S(=O)(=O)Nc2ccc(OC)nn2)cc1)C(F)(F)F` (stereo not drawn): the total growth inhibition concentration (TGI) in the test on MDA-MB-435, in the test with UO-31 renal, with CCRF-CEM leukemia, in the test on MOLT-4 leukemia, in the test on NCI-H460 lung and with RXF 393 renal was over 100 µM throughout. For the same molecule, in the test on HL-60(TB) leukemia, the TGI was over 100 µM.
For the molecule `OC1(c2ccc(Cl)cc2)c2c(c3ccccc3c3ccccc23)C2=NCCN21` (stereo not drawn), the TGI with MDA-MB-435 is over 100 µM; in the test with UO-31 renal, 24.6 µM; with CCRF-CEM leukemia, over 100 µM; in the test on MOLT-4 leukemia it was over 100 µM; in the test on NCI-H460 lung it was 41.4 µM; in the test on RXF 393 renal, 24.7 µM. Moreover, the TGI in the test with HL-60(TB) leukemia was over 100 µM.
Regarding `O=C1c2cccnc2-c2nccc3c2c1nc1ccc(Br)cc13`, the total growth inhibition concentration (TGI) was found to be 0.257 µM with MDA-MB-435; 0.202 µM in the test on UO-31 renal; 0.133 µM in the test with CCRF-CEM leukemia; 0.569 µM in the test with MOLT-4 leukemia; 0.125 µM in the test on NCI-H460 lung; 0.0691 µM in the test on RXF 393 renal. Moreover, the TGI with HL-60(TB) leukemia is 0.0377 µM.
Consider `O=c1c2cc(I)ccc2nc(SCc2nnco2)n1Cc1ccccc1`, for which the TGI with MDA-MB-435 was over 100 µM; in the test on UO-31 renal it was 2.87 µM; in the test on CCRF-CEM leukemia it was 62.9 µM; with MOLT-4 leukemia, 47.4 µM; with NCI-H460 lung, over 100 µM; in the test on RXF 393 renal, over 100 µM. This molecule also came in with a concentration for total growth inhibition (TGI) with HL-60(TB) leukemia of 35.4 µM.
`O=C1c2cc3c(cc2CC1Cc1ccc2c(c1)CCC2)CCC3` (stereo not drawn): the TGI in the test on MDA-MB-435, with UO-31 renal, in the test with CCRF-CEM leukemia, in the test with MOLT-4 leukemia, in the test with NCI-H460 lung and in the test on RXF 393 renal was over 100 µM throughout. Besides, in the test on HL-60(TB) leukemia, the concentration for total growth inhibition (TGI) is over 100 µM.
For `CC1=CC(=O)/C(=C/n2c(=S)[nH]c3cc(C)ccc32)C(=O)O1`, the TGI with MDA-MB-435, with UO-31 renal, in the test on CCRF-CEM leukemia, in the test with MOLT-4 leukemia, in the test with NCI-H460 lung and in the test with RXF 393 renal was over 100 µM throughout. Also, the TGI with HL-60(TB) leukemia was over 100 µM.
On to `O=S(c1ccc(Cl)cc1)c1ccccc1C1=NCCN1` (stereo not drawn), for which the TGI with MDA-MB-435, with UO-31 renal, in the test on CCRF-CEM leukemia, in the test with MOLT-4 leukemia, with NCI-H460 lung and in the test with RXF 393 renal was over 100 µM throughout. The same molecule had a concentration for total growth inhibition (TGI) in the test with HL-60(TB) leukemia of over 100 µM.
Take `CC1(C)CN=CC(C)(OCc2ccccc2)C(=O)NC(C)(C)CN=CC(C)(OCc2ccccc2)C(=O)N1` (stereo not drawn): the TGI in the test on MDA-MB-435, in the test on UO-31 renal, in the test on CCRF-CEM leukemia, with MOLT-4 leukemia, in the test on NCI-H460 lung and with RXF 393 renal was over 10 µM throughout. The molecule also showed a total growth inhibition concentration (TGI) in the test on HL-60(TB) leukemia of over 10 µM.
For `O=C1CCCCN1C(=O)c1ccc([N+](=O)[O-])cc1`, the concentration for total growth inhibition (TGI) in the test with MDA-MB-435, in the test on UO-31 renal, in the test on CCRF-CEM leukemia, in the test with MOLT-4 leukemia, in the test on NCI-H460 lung and in the test on RXF 393 renal was over 100 µM each time. For the same molecule, the TGI in the test on HL-60(TB) leukemia is over 100 µM.
Take `CC1C(C#N)(C#N)C(C#N)=C(N)C1(C)[N+](=O)[O-]` (stereo not drawn): the total growth inhibition concentration (TGI) in the test with MDA-MB-435, in the test with UO-31 renal, in the test on CCRF-CEM leukemia, with MOLT-4 leukemia, in the test on NCI-H460 lung and in the test on RXF 393 renal was over 100 µM each time. The molecule further showed a TGI in the test on HL-60(TB) leukemia of 90.7 µM.
Regarding `CCN(CC)C1Oc2cc3c(cc2C(c2cccc(OC)c2O)C1C)OCO3` (stereo not drawn), the concentration for total growth inhibition (TGI) in the test with MDA-MB-435 turned out to be 4.96 µM; with UO-31 renal it was 49.5 µM; in the test on CCRF-CEM leukemia, 16.3 µM; in the test on MOLT-4 leukemia it was 28 µM; with NCI-H460 lung, 21.9 µM; in the test with RXF 393 renal it was 21.2 µM. This molecule also returned a TGI in the test on HL-60(TB) leukemia of 7.18 µM.
In the case of `CCC(=O)N1C(=O)C(CC)(CC)C(=O)N1C(=O)CC`, the total growth inhibition concentration (TGI) in the test with MDA-MB-435, with UO-31 renal, in the test with CCRF-CEM leukemia, with MOLT-4 leukemia, in the test on NCI-H460 lung and in the test with RXF 393 renal was over 100 µM throughout. This molecule also registered a TGI in the test on HL-60(TB) leukemia of over 100 µM.
For the molecule `CC(C)=CCC[C@@H](C)C1=CC(=O)C(C)=C(O)C1=O`, the TGI in the test with MDA-MB-435 is 16.9 µM; in the test with UO-31 renal, 13.5 µM; with CCRF-CEM leukemia, 3.9 µM; in the test with MOLT-4 leukemia, over 23.5 µM; in the test on NCI-H460 lung it was 43.1 µM; with RXF 393 renal, 5.92 µM. In addition, the concentration for total growth inhibition (TGI) in the test with HL-60(TB) leukemia came to 0.878 µM.
Take `OCC1OC(c2ccccc2)CC1O` (stereo not drawn): the TGI with MDA-MB-435, in the test with UO-31 renal, with CCRF-CEM leukemia, in the test on MOLT-4 leukemia, in the test with NCI-H460 lung and in the test on RXF 393 renal was over 100 µM throughout. The same molecule displayed a TGI in the test with HL-60(TB) leukemia of over 100 µM.
Regarding `CS(=O)(=O)OCC1CCCCCCCCCCC12SCCCS2` (stereo not drawn), the TGI in the test with MDA-MB-435, in the test on UO-31 renal, in the test with CCRF-CEM leukemia, in the test on MOLT-4 leukemia, with NCI-H460 lung and in the test on RXF 393 renal was over 100 µM in each case. The molecule also showed a concentration for total growth inhibition (TGI) in the test with HL-60(TB) leukemia of over 100 µM.
Consider `O=C(CSCC(=O)N/N=C\c1ccccc1F)N/N=C\c1ccccc1F`, for which the TGI in the test on MDA-MB-435, in the test with UO-31 renal, in the test on CCRF-CEM leukemia, in the test on MOLT-4 leukemia, in the test on NCI-H460 lung and in the test with RXF 393 renal was over 100 µM each time. For the same molecule, the TGI in the test on HL-60(TB) leukemia is over 100 µM.
Turning to `COC1=CC(=O)c2nc3ccccc3c3ccnc1c23`, the total growth inhibition concentration (TGI) with MDA-MB-435 was 0.38 µM; with UO-31 renal it was over 50.2 µM; in the test on CCRF-CEM leukemia it was 13.8 µM; in the test with MOLT-4 leukemia, 13 µM; in the test with NCI-H460 lung, 8.33 µM; in the test on RXF 393 renal, 16.2 µM. The molecule further had a TGI in the test on HL-60(TB) leukemia of 10.7 µM.

These data come from PubChem BioAssay (NCI).
